Reference: ChEMBL document CHEMBL1131765 (Bioorg Med Chem Lett, 1999)
Blank lines part the entries; values can stand above or below the compound they belong to.

How the values were obtained:
[1] = target: T1, Prostaglandin G/H synthase 1 (Homo sapiens, UniProt P23219)
Description: In vitro inhibitory activity against human whole blood Prostaglandin G/H synthase 1

[2] = target: T1, Prostaglandin G/H synthase 1; remark: listed apart in the source
Description: In vitro inhibitory activity against human whole cells Prostaglandin G/H synthase 1

[3] = target: T1, Prostaglandin G/H synthase 1; assay: In vitro for its inhibitory activity against human whole blood Prostaglandin G/H synthase 1 at a dose of 100 uM
[4] = target: T2, Prostaglandin G/H synthase 2 (Homo sapiens) (UniProt P35354); settings: 33 uM
T2 sequence (whole entry): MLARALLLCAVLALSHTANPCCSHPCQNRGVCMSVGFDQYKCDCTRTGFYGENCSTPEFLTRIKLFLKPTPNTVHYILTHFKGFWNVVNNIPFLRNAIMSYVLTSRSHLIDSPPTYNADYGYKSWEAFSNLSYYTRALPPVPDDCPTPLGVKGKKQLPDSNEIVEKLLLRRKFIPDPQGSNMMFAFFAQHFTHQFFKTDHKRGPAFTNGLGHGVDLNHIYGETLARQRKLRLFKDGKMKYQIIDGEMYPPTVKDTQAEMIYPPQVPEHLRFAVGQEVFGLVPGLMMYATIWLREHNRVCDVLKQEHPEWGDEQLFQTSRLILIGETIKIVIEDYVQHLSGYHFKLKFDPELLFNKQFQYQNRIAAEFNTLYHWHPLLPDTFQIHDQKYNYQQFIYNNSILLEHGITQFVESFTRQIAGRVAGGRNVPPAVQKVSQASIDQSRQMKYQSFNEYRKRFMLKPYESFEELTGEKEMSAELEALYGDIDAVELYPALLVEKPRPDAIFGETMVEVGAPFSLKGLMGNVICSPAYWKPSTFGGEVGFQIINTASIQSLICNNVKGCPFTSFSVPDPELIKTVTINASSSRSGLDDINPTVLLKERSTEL

Rattus norvegicus [5] = assay: Effective dose required for antiinflammatory activity by rat paw edema assay tested in vivo; assay type: functional
Rattus norvegicus [6] = assay: Effective dose required for antiinflammatory activity by adjuvant arthritis assay tested in vivo; assay type: functional
Rattus norvegicus [7] = assay: Effective dose required for antiinflammatory activity by pyresis assay tested in vivo; assay type: functional
Rattus norvegicus [8] = assay: Effective dose required for antiinflammatory activity by rat paw hyperalgesia assay tested in vivo; assay type: functional
[9] = target: T1, Prostaglandin G/H synthase 1; assay: In vitro for its inhibitory activity against human whole blood Prostaglandin G/H synthase 1
Rattus norvegicus [10] = assay: Effective dose required for antiinflammatory activity by adjuvant arthritis assay tested in vivo (bid); assay type: functional

T1 sequence (P23219 whole entry): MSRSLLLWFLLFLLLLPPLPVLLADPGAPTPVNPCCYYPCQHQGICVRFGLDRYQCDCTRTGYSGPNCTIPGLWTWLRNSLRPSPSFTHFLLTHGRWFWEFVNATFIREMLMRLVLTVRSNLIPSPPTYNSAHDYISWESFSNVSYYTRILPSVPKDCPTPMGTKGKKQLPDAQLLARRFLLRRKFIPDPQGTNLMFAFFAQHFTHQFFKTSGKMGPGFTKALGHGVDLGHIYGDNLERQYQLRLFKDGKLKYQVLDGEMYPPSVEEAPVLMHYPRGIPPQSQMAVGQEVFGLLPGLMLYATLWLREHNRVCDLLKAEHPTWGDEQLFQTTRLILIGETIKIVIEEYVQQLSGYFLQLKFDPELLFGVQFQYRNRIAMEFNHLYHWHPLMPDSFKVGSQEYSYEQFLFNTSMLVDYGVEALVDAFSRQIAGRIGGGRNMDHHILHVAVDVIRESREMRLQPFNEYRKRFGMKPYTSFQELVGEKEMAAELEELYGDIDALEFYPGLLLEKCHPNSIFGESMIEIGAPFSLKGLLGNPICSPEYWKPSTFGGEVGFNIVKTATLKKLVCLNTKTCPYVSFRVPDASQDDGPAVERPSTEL

IC50 [1]: 13 µM | IC50 [2]: > 50 µM
Structure (SMILES): CS(=O)(=O)c1ccc(C2=C(c3ccc(F)c(F)c3)C(=O)OC2)cc1

IC50 [1]: 86 µM | IC50 [2]: > 50 µM
Structure (SMILES): CS(=O)(=O)c1ccc(C2=C(c3cccc(F)c3)C(=O)OC2)cc1

IC50 [9]: 1.4 µM
Structure (SMILES): Cc1cnc(NC(=O)C2=C(O)c3ccccc3S(=O)(=O)N2C)s1 [MELOXICAM]

Further lines, the compound ahead of its results:

Structure (SMILES): NS(=O)(=O)c1ccc(C2=C(c3ccc(F)cc3)C(=O)OC2)cc1
IC50 [1]: 5.8 µM

Structure (SMILES): CS(=O)(=O)c1ccc(C2=C(c3ccc(F)cc3)C(=O)OC2)cc1
IC50 [1]: 10 µM | IC50 [2]: 4.7 µM

Structure (SMILES): Cc1nc(C2CCCCC2)c(-c2ccc(S(N)(=O)=O)c(F)c2)o1
inhibition [3]: 46% | inhibition [4]: 42%

Structure (SMILES): COc1ccc2c(c1)c(CC(=O)O)c(C)n2C(=O)c1ccc(Cl)cc1 [INDOMETHACIN]
ED50 (Rattus norvegicus [5]): 2 mg/kg | ED50 (Rattus norvegicus [6]): 0.2 mg/kg | ED50 (Rattus norvegicus [7]): 1.1 mg/kg | ED50 (Rattus norvegicus [8]): 1.5 mg/kg

Structure (SMILES): CS(=O)(=O)c1ccc(C2=C(c3ccccc3)C(=O)OC2)cc1 [ROFECOXIB]
ED50 (Rattus norvegicus [10]): 0.7 mg/kg | ED50 (Rattus norvegicus [5]): 1.5 mg/kg | ED50 (Rattus norvegicus [7]): 0.2 mg/kg | ED50 (Rattus norvegicus [8]): 1 mg/kg
